Measured values: US12522601B2, “1,3,4-oxadiazole derivative compounds as histone deacetylase 6 inhibitor, and the pharmaceutical composition comprising the same” (CHONG KUN DANG PHARMACEUTICAL CORP., priority 2020, dated 2026)

How the values were obtained:
human recombinant HDAC1 = molecular target: T1, human recombinant HDAC1 (Homo sapiens, UniProt Q13547); test: In vitro HDAC enzyme activity inhibition assay, HDAC1 (HDAC Fluorimetric Drug Discovery Kit); assay type: biochemical; conditions: human recombinant HDAC1, Fluor de Lys-SIRT1 substrate 10 μM, 30° C. for 60 minutes
T1 construct: purchased Enzo Life Sciences, Inc. BML-SE456
T1 sequence (Q13547 whole entry): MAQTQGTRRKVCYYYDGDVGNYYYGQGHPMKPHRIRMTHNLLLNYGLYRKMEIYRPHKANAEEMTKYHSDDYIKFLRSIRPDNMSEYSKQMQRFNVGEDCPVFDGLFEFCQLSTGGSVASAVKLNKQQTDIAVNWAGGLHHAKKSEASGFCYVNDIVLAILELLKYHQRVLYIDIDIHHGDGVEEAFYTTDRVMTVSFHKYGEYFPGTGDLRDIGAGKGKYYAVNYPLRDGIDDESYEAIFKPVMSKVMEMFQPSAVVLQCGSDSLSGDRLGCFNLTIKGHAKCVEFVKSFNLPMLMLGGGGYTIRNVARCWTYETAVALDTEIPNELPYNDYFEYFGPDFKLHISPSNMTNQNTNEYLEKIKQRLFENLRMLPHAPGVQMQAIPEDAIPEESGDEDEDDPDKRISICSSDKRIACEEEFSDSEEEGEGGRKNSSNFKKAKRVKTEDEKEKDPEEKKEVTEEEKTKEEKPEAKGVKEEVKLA
Description: (§1) In order to confirm the selectivity of the compounds represented by Chemical Formula I of the present invention to HDAC6 through HDAC1 and HDAC6 enzyme activity inhibition experiments, a comparison experiment was performed using the material that has already been developed as a control group.
(§2) HDAC enzyme activity was measured using the HDAC Fluorimetric Drug Discovery Kit (Enzo Life Sciences, Inc., BML-AK511, 516). For the HDAC1 enzyme activity test, human recombinant HDAC1 (BML-SE456) was used as an enzyme source and Fluor de Lys®-SIRT1 (BNL-KI177) was used as a substrate. After dispensing 5-fold diluted compounds into a 96-well plate, 0.3 μg of enzyme and 10 μM substrate were added to each well of the plate and allowed to react at 30° C. for 60 minutes. Next, Fluor de Lys® Developer II (BML-KI176) was added and reacted for 30 minutes to complete the reaction, and then the fluorescence values (Ex 360, Em 460) were measured using a multi-plate reader (Flexstation 3, Molecular Device). The HDAC6 enzymes were tested using human recombinant HDAC6 (382180) from Calbiochem Inc., according to the same protocol as the HDAC1 enzyme activity test method. With respect to the final result values, respective IC50 values were calculated using GraphPad Prism 4.0 program, and results thereof were summarized in Table 5 below.

human recombinant HDAC6 = molecular target: T2, human recombinant HDAC6 (Homo sapiens, UniProt Q9UBN7); test: In vitro HDAC enzyme activity inhibition assay, HDAC6 (HDAC Fluorimetric Drug Discovery Kit); assay type: biochemical; conditions: for HDAC6 Selectivity (fold): HDAC6 versus HDAC1; for IC50: human recombinant HDAC6, same protocol as the HDAC1 test
T2 construct: purchased Calbiochem Inc. 382180
T2 sequence (Q9UBN7 1-1215): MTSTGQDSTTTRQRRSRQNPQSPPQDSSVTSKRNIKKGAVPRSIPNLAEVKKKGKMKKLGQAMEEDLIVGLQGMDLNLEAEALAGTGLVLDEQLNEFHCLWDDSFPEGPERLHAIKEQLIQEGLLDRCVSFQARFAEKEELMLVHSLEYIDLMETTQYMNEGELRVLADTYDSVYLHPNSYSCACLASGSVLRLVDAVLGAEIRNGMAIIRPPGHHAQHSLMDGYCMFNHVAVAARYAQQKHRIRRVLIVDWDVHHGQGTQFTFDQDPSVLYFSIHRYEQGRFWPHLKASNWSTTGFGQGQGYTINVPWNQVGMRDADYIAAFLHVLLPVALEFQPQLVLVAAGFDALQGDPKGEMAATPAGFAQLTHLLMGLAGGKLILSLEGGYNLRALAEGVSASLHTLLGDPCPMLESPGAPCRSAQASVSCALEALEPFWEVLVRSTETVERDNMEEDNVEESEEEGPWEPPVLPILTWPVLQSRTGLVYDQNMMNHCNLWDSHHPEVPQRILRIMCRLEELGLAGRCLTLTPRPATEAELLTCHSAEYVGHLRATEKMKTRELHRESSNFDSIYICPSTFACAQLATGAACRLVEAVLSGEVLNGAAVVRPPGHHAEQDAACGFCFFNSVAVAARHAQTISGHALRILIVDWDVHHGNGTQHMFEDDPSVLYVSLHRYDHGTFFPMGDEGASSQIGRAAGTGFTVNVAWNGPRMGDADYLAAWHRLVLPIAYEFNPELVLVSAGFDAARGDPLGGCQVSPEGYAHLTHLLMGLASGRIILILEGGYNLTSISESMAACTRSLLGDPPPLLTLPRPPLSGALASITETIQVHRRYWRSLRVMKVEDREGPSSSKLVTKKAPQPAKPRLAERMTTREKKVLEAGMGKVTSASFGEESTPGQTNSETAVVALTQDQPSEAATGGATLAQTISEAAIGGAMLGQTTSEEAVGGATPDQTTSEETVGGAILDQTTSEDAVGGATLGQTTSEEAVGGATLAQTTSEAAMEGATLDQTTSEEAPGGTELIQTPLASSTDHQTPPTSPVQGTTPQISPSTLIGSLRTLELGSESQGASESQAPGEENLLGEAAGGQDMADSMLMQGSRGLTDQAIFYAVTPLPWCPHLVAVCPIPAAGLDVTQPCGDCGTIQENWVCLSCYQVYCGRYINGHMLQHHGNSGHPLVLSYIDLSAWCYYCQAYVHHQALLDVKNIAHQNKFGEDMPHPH
Description: as §1, §2

IC50 (human recombinant HDAC1) | HDAC6 Selectivity (fold) (human recombinant HDAC6) | IC50 (human recombinant HDAC6) | Structure (SMILES)
> 50000 nM | 359 fold | 139 nM | O=C(C1CCN(c2ccccn2)CC1)N(Cc1cn2ccc(-c3nnc(C(F)F)o3)cc2n1)c1cccc(F)c1 [Compound 4156, N-((7-(5-(difluoromethyl)-1,3,4-oxadiazol-2-yl)imidazo[1,2-a]pyridin-2-yl)methyl)-N-(3-fluorophenyl)-1-(pyridin-2-yl)piperidine-4-carboxamide]
> 50000 nM | 124 fold | 404 nM | O=C(C1COC1)N1CCC(C(=O)N(Cc2cn3ccc(-c4nnc(C(F)F)o4)cc3n2)c2ccccc2)CC1 [Compound 4126, N-((7-(5-(difluoromethyl)-1,3,4-oxadiazol-2-yl)imidazo[1,2-a]pyridin-2-yl)methyl)-1-(oxetan-3-carbonyl)-N-phenylpiperidine-4-carboxamide]
> 50000 nM | 249 fold | 201 nM | CC(CO)N1CCN(C(=O)N(Cc2cn3ccc(-c4nnc(C(F)F)o4)cc3n2)c2cccc(F)c2)CC1 (stereo not drawn) [Compound 4086, N-((7-(5-(difluoromethyl)-1,3,4-oxadiazol-2-yl)imidazo[1,2-a]pyridin-2-yl)methyl)-N-(3-fluorophenyl)-4-(1-hydroxypropan-2-yl)piperazine-1-carboxamide]

The remaining lines, values behind:

Structure (SMILES) | IC50 (human recombinant HDAC1) | HDAC6 Selectivity (fold) (human recombinant HDAC6) | IC50 (human recombinant HDAC6)
COC(=O)N1CCC(C(=O)N(Cc2cn3ccc(-c4nnc(C(F)F)o4)cc3n2)c2cccc(F)c2)CC1 [Compound 4154, methyl 4-(((7-(5-(difluoromethyl)-1,3,4-oxadiazol-2-yl)imidazo[1,2-a]pyridin-2-yl)methyl)(3-fluorophenyl)carbamoyl)piperidine-1-carboxylate] | > 50000 nM | 218 fold | 229 nM
O=C(CO)N1CCN(C(=O)N(Cc2cn3ccc(-c4nnc(C(F)F)o4)cc3n2)c2ccccc2)CC1 [Compound 4042, N-((7-(5-(difluoromethyl)-1,3,4-oxadiazol-2-yl)imidazo[1,2-a]pyridin-2-yl)methyl)-4-(2-hydroxyacetyl)-N-phenylpiperazine-1-carboxamide] | > 50000 nM | 197 fold | 254 nM
O=C(C1CN(C2CCC(F)(F)CC2)C1)N(Cc1cn2ccc(-c3nnc(C(F)F)o3)cc2n1)c1cccc(F)c1 [Compound 4196, 1-(4,4-Difluorocyclohexyl)-N-((7-(5-(difluoromethyl)-1,3,4-oxadiazol-2-yl)imidazo[1,2-a]pyridin-2-yl)methyl)-N-(3-fluorophenyl) azetidine-3-carboxamide] | > 50000 nM | 276 fold | 181 nM
O=C(C1CN(C2CCCCC2)C1)N(Cc1cn2ccc(-c3nnc(C(F)F)o3)cc2n1)c1ccccc1 [Compound 4164, 1-cyclohexyl-N-((7-(5-(difluoromethyl)-1,3,4-oxadiazol-2-yl)imidazo[1,2-a]pyridin-2-yl)methyl)-N-phenylazetidine-3-carboxamide] | > 50000 nM | 147 fold | 340 nM
O=C(C1COC1)N1CC(C(=O)N(Cc2cn3ccc(-c4nnc(C(F)F)o4)cc3n2)c2cccc(F)c2)C1 [Compound 4201, N-((7-(5-(difluoromethyl)-1,3,4-oxadiazol-2-yl)imidazo[1,2-a]pyridin-2-yl)methyl)-N-(3-fluorophenyl)-1-(oxetane-3-carbonyl) azetidine-3-carboxamide] | > 50000 nM | 177 fold | 283 nM
FC(F)c1nnc(-c2ccn3cc(CNc4ccccc4)nc3c2)o1 [Compound 3668, N-((7-(5-(difluoromethyl)-1,3,4-oxadiazol-2-yl)imidazo[1,2-a]pyridin-2-yl)methyl)aniline] | > 50000 nM | 299 fold | 167 nM
O=C(N1CCN(C2CC3(COC3)C2)CC1)N(Cc1cn2ccc(-c3nnc(C(F)F)o3)cc2n1)c1cccc(F)c1 [Compound 4621] | > 50000 nM | 326 fold | 153 nM
